Data from ChEMBL document CHEMBL3045372, “Biososteric Replacement in the Design and Synthesis of Ligands for Nicotinic Acetylcholine Receptors” (Med Chem Res, 2005).

What was measured:
[1] = biological target: Neuronal acetylcholine receptor; alpha4/beta2 (Rattus norvegicus) (UniProt P09483+P12390); test: Displacement of [3H]cytisine from alpha4beta2 nicotinic acetylcholine receptor in Rattus norvegicus (rat) cerebral cortex at 10 uM after 75 min by scintillation counting; format: tissue-based
[2] = biological target: T1, Neuronal acetylcholine receptor; alpha4/beta2 (Homo sapiens, UniProt P17787+P43681); test: Displacement of [3H]nicotine from Homo sapiens (human) alpha4beta2 nicotinic acetylcholine receptor expressed in Homo sapiens (human) SH-EP1 cells after 2.5 min by scintillation counting; format: cell-based
[3] = biological target: T1, Neuronal acetylcholine receptor; alpha4/beta2; test: Inhibition of alpha4beta2 nicotinic acetylcholine receptor (unknown origin); format: protein-complex assay

T1 sequence (P17787 whole entry): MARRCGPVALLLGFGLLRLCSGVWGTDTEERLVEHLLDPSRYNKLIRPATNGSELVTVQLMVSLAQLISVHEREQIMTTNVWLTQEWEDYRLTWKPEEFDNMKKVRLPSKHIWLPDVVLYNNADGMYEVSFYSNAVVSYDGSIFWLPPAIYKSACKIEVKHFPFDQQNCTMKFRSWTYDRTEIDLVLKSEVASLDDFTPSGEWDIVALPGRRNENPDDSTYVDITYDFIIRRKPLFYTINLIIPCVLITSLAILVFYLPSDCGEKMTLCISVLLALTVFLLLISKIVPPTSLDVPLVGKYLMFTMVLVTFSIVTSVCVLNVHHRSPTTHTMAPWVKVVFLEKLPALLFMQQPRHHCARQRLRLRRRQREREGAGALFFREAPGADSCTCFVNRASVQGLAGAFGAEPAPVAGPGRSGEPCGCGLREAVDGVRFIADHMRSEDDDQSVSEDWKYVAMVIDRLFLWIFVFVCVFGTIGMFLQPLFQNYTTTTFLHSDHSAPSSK
T1 sequence (P43681 whole entry): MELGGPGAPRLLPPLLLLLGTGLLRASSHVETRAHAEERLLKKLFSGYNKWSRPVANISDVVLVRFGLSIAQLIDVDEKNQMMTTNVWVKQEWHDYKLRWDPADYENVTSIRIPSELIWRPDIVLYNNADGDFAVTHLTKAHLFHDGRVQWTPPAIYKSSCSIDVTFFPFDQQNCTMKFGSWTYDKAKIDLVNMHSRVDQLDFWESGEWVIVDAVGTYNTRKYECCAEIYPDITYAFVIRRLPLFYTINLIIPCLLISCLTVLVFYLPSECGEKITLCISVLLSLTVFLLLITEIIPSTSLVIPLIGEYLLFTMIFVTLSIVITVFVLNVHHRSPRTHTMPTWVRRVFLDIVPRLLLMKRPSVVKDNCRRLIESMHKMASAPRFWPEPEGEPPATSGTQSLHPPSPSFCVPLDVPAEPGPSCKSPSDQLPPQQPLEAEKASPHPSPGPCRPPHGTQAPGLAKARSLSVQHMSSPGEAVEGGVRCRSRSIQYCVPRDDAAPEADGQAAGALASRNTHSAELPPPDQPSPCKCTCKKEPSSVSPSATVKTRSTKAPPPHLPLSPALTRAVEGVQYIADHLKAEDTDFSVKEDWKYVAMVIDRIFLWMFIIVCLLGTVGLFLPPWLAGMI

## CC(C)N(CCOc1cccc([N+](=O)[O-])c1)C(C)C
[1]
  inhibition: 0%

## CN(C)CCOc1cccc(O)c1
[2]; read-out: Ki
  Ki: 360 nM

## CC(C)N(CCOc1cccnc1)C(C)C
[1]
  inhibition: 64%
[2]
  inhibition: Dose-dependent effect
[2]; read-out: Ki
  Ki: 11200 nM

## Oc1cccc(OCCN(c2ccccc2)c2ccccc2)c1
[1]
  inhibition: 0%

## O=[N+]([O-])c1cccc(OCCN(c2ccccc2)c2ccccc2)c1
[1]
  inhibition: 0%

## CCCN(CCC)CCOc1cccc([N+](=O)[O-])c1
[1]
  inhibition: 21%
[2]; sh-ep1
  Ki: Not Active

## O=[N+]([O-])c1cccc(OC[C@@H]2CC3CCN2CC3)c1
[3]
  Ki: 734 nM

## CN(C)CCOc1cccc([N+](=O)[O-])c1
[1]
  inhibition: 33%
[2]; read-out: Ki
  Ki: 3390 nM

## CN(C)CCOc1cncc(Cl)c1
[1]
  inhibition: 84%
[2]; read-out: Ki
  Ki: 450 nM

## Oc1cccc(OC[C@@H]2CC3CCN2CC3)c1
[3]
  Ki: 4 nM

## c1ccc(N(CCOc2cccnc2)c2ccccc2)cc1
[1]
  inhibition: 0%

## CC(C)N(CCOc1cccc(O)c1)C(C)C
[1]
  inhibition: 0%

## CN(C)CCOc1cccnc1
[1]
  inhibition: 95%
[2]; read-out: Ki
  Ki: 300 nM

## Cc1c(O)cccc1OCCN(c1ccccc1)c1ccccc1
[1]
  inhibition: 0%
